Source: patent publication US10208074B2, “Pyrazole compounds and method for making and using the compounds” (Rigel Pharmaceuticals, Inc., priority 2015, dated 2019)
Where a name gives a salt, the structure may show the parent alone. Read-outs that look alike come from different tables or passages of the source.

Assays:
IL-23 (p19/p40) = assay: IL23-p19 ELISA, Dendritic, LPS (compound screening using DC cells); assay type: cell-based, Human; details: PBMC-derived DC cells, IFNγ primed, LPS 1 μg/ml, 18 hours, 10 pt, read-out: IL23-p19 ELISA, Dendritic, LPS, 10 pt, EC50
Outline: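 IL-23 in supernatants quantified by sandwich ELISA (anti-p19 capture, biotinylated anti-p40 detection, chemiluminescent readout) after 18 h LPS (1 μg/ml) stimulation. Cells were monocyte-derived DCs (GM-CSF/IL-4, 7 d), IFNγ-primed 24 h and given compound 1 h before LPS; viability by CellTiter Glo.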

IL-23p19 = assay: LPS induced IL23p19 in THP-1 cells (with IFNγ primed) assay; assay type: cell-based, Human; details: THP-1 cells, IFNγ primed, LPS 1 ug/mL, 18 hours, 10 pt, read-out: IL23-p19 ELISA, THP1-IFNy, LPS, 10 pt EC50
Outline: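 Readout is secreted IL-23p19, quantified by chemiluminescent sandwich ELISA after 18 h LPS (1 ug/mL) stimulation of THP-1 cells that had been IFNγ-primed (50 ng/mL, ~18 h) and given compound 1 h beforehand at 37 °C. EC50 derived by curve fit; cytotoxicity tracked with Cell Titer Glo.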

EC50 (IL-23p19; Homo sapiens, THP-1, 18 h) [nM] | EC50 (IL-23 (p19/p40); Homo sapiens, 18 h) [nM] | Structure (SMILES) | other results
14200 | 3510 | COCCOCCN(C(=O)c1ccc(-c2cnn(CCOCCOC)c2)o1)c1cn(CCOCCOC)nc1-c1ccccn1 [Compound I-50, N-(2-(2-methoxyethoxy)ethyl)-5-(1-(2-(2-methoxyethoxy)ethyl)-1H-pyrazol-4-yl)-N-(1-(2-(2-methoxyethoxy)ethyl)-3-(pyridin-2-yl)-1H-pyrazol-4-yl)furan-2-carboxamide formate] | –
156 | 7720 | CCOCCn1cc(NC(=O)c2ccc(-c3c[nH]nc3C)o2)c(-c2ccccn2)n1 [Compound I-56, N-(1-(2-ethoxyethyl)-3-(pyridin-2-yl)-1H-pyrazol-4-yl)-5-(3-methyl-1H-pyrazol-4-yl)furan-2-carboxamide formate] | –
2810 | 27500 | CCOCCn1cc(NC(=O)c2ccc(-c3c(C)n[nH]c3C)o2)c(-c2ccccn2)n1 [Compound I-58, 5-(3,5-dimethyl-1H-pyrazol-4-yl)-N-(1-(2-ethoxyethyl)-3-(pyridin-2-yl)-1H-pyrazol-4-yl)furan-2-carboxamide formate] | –
1250 | 325 | Cn1cc(-c2ccc(C(=O)Nc3cn(C)nc3-c3ccccn3)o2)cn1 [Compound I-69, 5-(1-Methyl-1H-pyrazol-4-yl)-N-{1-methyl-3-(pyridine-2-yl)-1H-pyrazol-4-yl}furan-2-carboxamide, formate salt] | –
697 | 410 | O=C(Nc1cn(C2CC(OCc3ccccc3)C2)nc1-c1ccccn1)c1ccc(-c2cn[nH]c2)o1 (stereo not drawn) [Compound I-73, N-{1-(3-Benzyloxy)cyclobutyl)-3-(pyridine-2-yl)-1H-pyrazol-4-yl}-5-(1H-pyrazol-4-yl)furan-2-carboxamide, Trans isomer] | –

More lines, now with the values behind:

Structure (SMILES) | EC50 (IL-23p19; Homo sapiens, THP-1, 18 h) [nM] | EC50 (IL-23 (p19/p40); Homo sapiens, 18 h) [nM] | other results
CCOCCn1cc(NC(=O)c2ccc(-c3cn[nH]c3)o2)c(-c2ccccn2)n1 [Compound I-37, N-(1-(2-ethoxyethyl)-3-(pyridin-2-yl)-1H-pyrazol-4-yl)-5-(1H-pyrazol-4-yl)furan-2-carboxamide formate] | 144 | – | EC50 (IL-23 (p19/p40); formate): 17.4 nM
CCOCCn1cc(NC(=O)c2ccc(-c3cn[nH]c3)o2)c(-c2ccccn2)n1 [Compound I-38, N-(1-(2-ethoxyethyl)-3-(pyridin-2-yl)-1H-pyrazol-4-yl)-5-(1H-pyrazol-4-yl)furan-2-carboxamide] | – | – | EC50 (IL-23 (p19/p40)): 58.2 nM; EC50 (IL-23p19): 172 nM
CCOCCn1cc(NC(=O)c2ccc(-c3cnn(CC)c3)o2)c(-c2ccccn2)n1 [Compound I-39, N-(1-(2-ethoxyethyl)-3-(pyridin-2-yl)-1H-pyrazol-4-yl)-5-(1-ethyl-1H-pyrazol-4-yl)furan-2-carboxamide formate] | 1950 | 4320 | –
CCOCCn1cc(NC(=O)c2ccc(-c3c[nH]nc3C(F)(F)F)o2)c(-c2ccccn2)n1 [Compound I-41, N-(1-(2-ethoxyethyl)-3-(pyridin-2-yl)-1H-pyrazol-4-yl)-5-(3-(trifluoromethyl)-1H-pyrazol-4-yl)furan-2-carboxamide formate] | 2570 | 3940 | –
CCOCCn1cc(NC(=O)c2ccc(-c3cnn(C)c3)o2)c(-c2ccccn2)n1 [Compound I-45, N-(1-(2-ethoxyethyl)-3-(pyridin-2-yl)-1H-pyrazol-4-yl)-5-(1-methyl-1H-pyrazol-4-yl)furan-2-carboxamide formate] | 1080 | 5450 | –
O=C(Nc1c[nH]nc1-c1ccccn1)c1ccc(-c2cn[nH]c2)o1 [Compound I-47, 5-(1H-pyrazol-4-yl)-N-(3-(pyridin-2-yl)-1H-pyrazol-4-yl)furan-2-carboxamide] | 392 | 327 | –
CC1(Cn2cc(-c3ccc(C(=O)Nc4cn(CC5(C)COC5)nc4-c4ccccn4)o3)cn2)COC1 [Compound I-48, 5-(1-((3-methyloxetan-3-yl)methyl)-1H-pyrazol-4-yl)-N-(1-((3-methyloxetan-3-yl)methyl)-3-(pyridin-2-yl)-1H-pyrazol-4-yl)furan-2-carboxamide formate] | 5520 | 7500 | –
CCOCCn1cc(NC(=O)c2ccc(-c3cnn(COP(=O)(O)O)c3)o2)c(-c2ccccn2)n1 [Compound I-54, (4-(5-((1-(2-ethoxyethyl)-3-(pyridin-2-yl)-1H-pyrazol-4-yl)carbamoyl)furan-2-yl)-1H-pyrazol-1-yl)methyl dihydrogen phosphate] | 617 | 1580 | –
CCOCCn1cc(NC(=O)c2ccc(-c3cnn(COP(=O)(O)O)c3)o2)c(-c2ccccn2)n1 [Compound I-55, sodium (4-(5-((1-(2-ethoxyethyl)-3-(pyridin-2-yl)-1H-pyrazol-4-yl)carbamoyl)furan-2-yl)-1H-pyrazol-1-yl)methyl phosphate] | – | – | EC50 (IL-23 (p19/p40); phosphate): 801 nM; EC50 (IL-23p19; phosphate): 1200 nM
O=C(Nc1cn(C2CCOCC2)nc1-c1nccs1)c1ccc(-c2cn[nH]c2)o1 [Compound I-60, 5-(1H-pyrazol-4-yl)-N-(1-(tetrahydro-2H-pyran-4-yl)-3-(thiazol-2-yl)-1H-pyrazol-4-yl)furan-2-carboxamide formate] | – | – | EC50 (IL-23 (p19/p40); formate): 33.8 nM; EC50 (IL-23p19; formate): 174 nM
CCO[C@H]1C[C@@H](n2cc(NC(=O)c3ccc(-c4cn[nH]c4)o3)c(-c3nccs3)n2)C1 [Compound I-62, N-(1-((1s,3s)-3-ethoxycyclobutyl)-3-(thiazol-2-yl)-1H-pyrazol-4-yl)-5-(1H-pyrazol-4-yl)furan-2-carboxamide formate] | 48.1 | 115 | –
COCCOCCn1cc(NC(=O)c2ccc(-c3cn[nH]c3)o2)c(-c2nccs2)n1 [Compound I-64, N-(1-(2-(2-methoxyethoxy)ethyl)-3-(thiazol-2-yl)-1H-pyrazol-4-yl)-5-(1H-pyrazol-4-yl)furan-2-carboxamide] | 77.7 | 366 | –
O=C(Nc1cn(C2CCOCC2)nc1-c1nccs1)c1ccc(-c2cn[nH]c2)o1 [Compound I-65, 5-(1H-pyrazol-4-yl)-N-(1-(tetrahydro-2H-pyran-4-yl)-3-(thiazol-2-yl)-1H-pyrazol-4-yl)furan-2-carboxamide] | – | – | EC50 (IL-23 (p19/p40)): 199 nM; EC50 (IL-23p19): 54.3 nM
Cn1cc(NC(=O)c2ccc(-c3cn[nH]c3)o2)c(-c2ccccn2)n1 [Compound I-67, N-{1-Methyl-3-(pyridine-2-yl)-1H-pyrazol-4-yl}-5-(1H-pyrazol-4-yl)furan-2-carboxamide, formate salt] | 72.3 | – | EC50 (IL-23 (p19/p40); formate salt): 4.1 nM
CC(C)(C)OC(=O)N1CC(n2cc(NC(=O)c3ccc(-c4cn[nH]c4)o3)c(-c3ccccn3)n2)C1 [Compound I-70, tert-Butyl-3-[4-{5-(1H-pyrazole-4-yl)furan-2-carboxamido}-3-(pyridine-2-yl)-1H-pyrazol-1-yl]azetidine-1-carboxylate, formate salt] | – | – | EC50 (IL-23 (p19/p40); formate salt): 28.3 nM; EC50 (IL-23p19; formate salt): 366 nM
COC1CC(n2cc(NC(=O)c3ccc(-c4cn[nH]c4)o3)c(-c3ccccn3)n2)C1 (stereo not drawn) [Compound I-71, N-{1-(3-Methoxycyclobutyl)-3-(pyridine-2-yl)-1H-pyrazol-4-yl}-5-(1H-pyrazol-4-yl)furan-2-carboxamide, formate salt, Cis isomer] | – | – | EC50 (IL-23 (p19/p40)): 22.5 nM; EC50 (IL-23p19): 26.5 nM
COC1CC(n2cc(NC(=O)c3ccc(-c4cn[nH]c4)o3)c(-c3ccccn3)n2)C1 (stereo not drawn) [Compound I-72, N-{1-(3-Methoxycyclobutyl)-3-(pyridine-2-yl)-1H-pyrazol-4-yl}-5-(1H-pyrazol-4-yl)furan-2-carboxamide, Cis isomer] | – | – | EC50 (IL-23 (p19/p40)): 5 nM; EC50 (IL-23p19): 56.8 nM
CC(C)(C)OC(=O)N1CC(n2cc(NC(=O)c3ccc(-c4cn[nH]c4)o3)c(-c3ccccn3)n2)C1 [Compound I-74, tert-Butyl-3-[4-{5-(1H-pyrazole-4-yl)furan-2-carboxamido}-3-(pyridine-2-yl)-1H-pyrazol-1-yl]azetidine-1-carboxylate] | – | – | EC50 (IL-23 (p19/p40)): 131 nM; EC50 (IL-23p19): 151 nM
COC1CC(n2cc(NC(=O)c3ccc(-c4cn[nH]c4)o3)c(-c3ccccn3)n2)C1 (centres unmarked) [Compound I-75, N-(1-((1s,3s)-3-methoxycyclobutyl)-3-(pyridin-2-yl)-1H-pyrazol-4-yl)-5-(1H-pyrazol-4-yl)furan-2-carboxamide formate] | – | – | EC50 (IL-23 (p19/p40)): 19.5 nM; EC50 (IL-23p19): 102 nM
Cn1cc(NC(=O)c2ccc(-c3cn[nH]c3)o2)c(-c2ccccn2)n1 [Compound I-77, N-{1-Methyl-3-(pyridine-2-yl)-1H-pyrazol-4-yl}-5-(1H-pyrazol-4-yl)furan-2-carboxamide, free base] | – | – | EC50 (IL-23 (p19/p40)): 41 nM; EC50 (IL-23p19): 50.4 nM
